Data on eleven compounds can be found in patent US20080242681A1, “N-4-(6-(Hetero)Aryl-Pyrimidin-4-Ylaminophenyl)-Benzenesulfonamides as Kinase Inhibitors” (Altana Pharma AG, priority 2004, published 2008).

Where a name gives a salt, the structure may show the parent alone.

Experiment [1] has as its system primary human CD4+ T lymphocytes. The experiment can be described thus: CD3/CD28 costimulation assay, IL-2 release. To be noted: 48 h, IL-2 ELISA, read-out: IC50, inhibition of IL-2 release from stimulated CD4+ T lymphocytes. The class given is cell-based. On the procedure:
The assay is performed with freshly isolated primary human CD4+ T lymphocytes. CD4+ T lymphocytes from whole blood are prepared using negative selection as previously described (Hatzelmann and Schudt, J. Pharmacol. Exp. Ther. 2001; 297:267-279). In brief, peripheral blood mononuclear cells (PBMC) are isolated by density gradient centrifugation using a Percoll gradient (p= 1.077 g/ml). 1×10^7 PBMC were then resuspended in 30 μl of PBS containing 0.5% FCS and human CD4+ T lymphocytes are isolated by depletion of non CD4+ T cells. For this, non-CD4+ T cells are Indirectly magnetically labeled with 10 μl of a cocktail of biotin-conjugated monoclonal antibodies (against CD8, CD14, CD16, CD19, CD36, CD56, CD123, TCR γ/δ; MACS CD4+ T cell isolation kit II, Miltenyi Biotec), as primary labeling reagent, and anti-biotin monoclonal antibodies conjugated to MicroBeads, as secondary labeling reagent The magnetically labeled non-CD4+ T cells are depleted by retaining them on a MACS column in the magnetic field of a MACS separator (Miltenyi Biotec, Bergisch Gladbach, Germany) according to the manufacturer's instruction. CD4+ T cells are resuspended in RPM 11640 containing 10% heat-inactivated FCS, 2 mM L-glutamine, 100 U/ml penicillin and 100 μg/ml streptomycin (Gibco Life Technologies).
2×10^5 CD4+ T cells in a total assay volume of 200 μl are stimulated via the T-cell receptor and the costimulatory molecule CO28 by using corresponding selective mAbs as previously described (Hatzelmann and Schudt, J. Pharmacol. Exp. Ther. 2001; 297:267-279). The assay is performed in 96 well tissue culture plates (655180, flat bottom, Greiner, Frickenhausen, Germany). Cells were maintained at 37° C. in a humidified atmosphere of 5% CO2 in an incubator (type BB6220 CU, Heraeus Instruments, Hanau, Germany). For determination of IL-2 level, all assays are performed in duplicate, and after 48 h of growth, supernatants are removed, pooled in 96 well plates (650101, U-shape, Greiner) and stored at −20° C. before measurement of IL-2 with a commercially available enzymimmunoassay kit from Coulter-Immunotech Diagnostics (Marseille, France) according to the manufacturer's instruction. For each experiment the appropriate dilution factor for IL-2 is determined. Dilutions are performed in diluent D (Coulter-Immunotech Diagnostics) and IL-2 for one condition is determined from the pool fraction in duplicate in a ELISA-reader (Rainbow, Tecan, Crailsheim, Germany) at 450 nm.
To investigate the effect of a test compound on the IL-2 release of stimulated CD4+ T cells, six three-fold dilution steps in duplicates per test compound are performed (final DMSO concentration 0.1%). […] The inhibition obtained In the presence of a test compound is calculated as percent inhibition of the high control. […]
A general note: ELISA stands for enzyme-linked immunosorbent assay.

Experiment [2] concerns the target T1, PKCη (Homo sapiens, UniProt P24723).
T1 construct: made in house; host or cells: Sf21 insect cells
The experiment can be described thus: Protein Kinase C η assay (SPA). The class given is biochemical. Particulars: human recombinant PKCη from Sf21 insect cells, read-out: IC50, inhibition of PKC η. On the procedure:
(§1) The compounds of formula 1 are tested for their activity on different protein kinases and PKC isoforms using a scintillation proximity assay (SPA, Amersham International plc). ^33P-labeled peptides are captured onto streptavidin coated yttrium silicate SPA beads. β-particles, emitted from the captured ^33P-labeled substrate in close proximity to the bead are able to excite the scintillant, resulting in the generation of quantifiable light. The assay is performed in a 96-well polystyrene microtiterplate (1450-514, Isoplates, Wallac, Turku, Finland). The reaction mixture (50 μl) contains 10 μl of the test compound together with 10 μl of the relevant kinase, diluted in the relevant dilution buffer, 5 μl of 10 μM phorbol myristate acetate (PMA) in H2O, 5 μl of 1.6 mM phosphatidylserine (Sigma-Aldrich Chemie GmbH, Stein-heim, Germany) in 20 mM Tris/HCL buffer pH 7.4, 5 μl of 0.3% BSA in H2O, 5 μl of 30 μM relevant substrate and 10 μl of 5 μM ATP and 0.1 μCi of ^33P-ATP (Amersham, Freiburg, Germany) in 200 mM Tris/HCL pH 7.5 and 200 mM MgCl2. Incubation is performed for 40 min at room temperature (RT) without shaking. Reaction is stopped by adding 150 μl of cold stop solution containing 10 mM ATP, 5 mM EGTA pH 7.5, 0.1% Triton X-100 and 0.2 mg streptavidin coated yttrium silicate SPA beads (Amersham, RPNQ 0012). The sealed plate is incubated for 60 min at RT. Thereafter the MTP is counted in a Microbeta Jet (Wallac). IC50 measurement is performed on a routine basis by incubation a serial dilution of inhibitor at concentrations ranging between 0.01 and 100 μM according to the method described above. Background values are the signals of the reaction mixture without addition of the relevant kinase and are subtracted from all values. 100% values are the signals of the reaction mixture without addition of inhibitors.
(§2) Dependent on the efficacy of the inhibitors In the various test systems, corresponding IC50 values are calculated from concentration-inhibition curves by nonlinear regression analysis using the program GraphPad Prism (GraphPad Software Inc., San Diego, Calif.).
Human recombinant nickel bead purified PKCη from Sf21 insect cells is used under the assay conditions as described above (Section A.1). The enzyme is diluted in PKC dilution buffer containing 1 mM Hepes pH 7.4, 0.5 mM DTT and 0.001% Triton X-100. The kinase reaction is performed with the biotinylated PKCη pseudosubstrate solved in H2O. The examples 52, 55, 118 and 135 inhibit PKC η in this assay with an IC50 between 6 and 50 μM.

The target of experiment [3] is T2, PKCβ1 (Homo sapiens, UniProt P05771).
T2 construct: purchased Panvera
The experiment can be described thus: Protein Kinase Cβ1 assay (SPA). Particulars: human recombinant PKCβ1, SPA, biotinylated PKCα pseudosubstrate, 0.5 mM CaCl2; read-out: IC50, inhibition of PKC β1. Format: biochemical. On the procedure:
as §1, §2
Human recombinant PKCβ1 was obtained from Panvera and is used under the assay conditions as described above (Section A.1). The enzyme is diluted in PKC dilution buffer containing 1 mM Hepes pH 7.4, 0.5 mM DTT and 0.001% Triton X-100. The assay additionally contains 0.5 mM CaCl2. The kinase reaction is performed with the biotinylated PKCα pseudosubstrate solved in H2O. The examples 29, 45, 52, 128 and 139 inhibit PKC β1 in this assay with an IC50 between 2 and 40 μM.

Experiment [4] concerns responder T cells. The experiment can be described thus: Mixed lymphocyte reaction (MLR), T cell proliferation. The class given is cell-based. Particulars: [3H]thymidine incorporation after 48 h, read-out: IC50, inhibition of MLR-mediated T-cell proliferation. On the procedure: For MLR cultures 4×10^5 responder T cells are incubated in duplicates with 2×10^5 mitomycin C-treated allogeneic stimulator T cells in a total volume of 200 μl RPMI 1640 medium supplemented with 10% FCS, 2 mM L-glutamine, 100 U/ml penicillin and 100 μg/ml streptomycin (Gibco Life Technologies) in 96 well tissue culture plates (655180, flat bottom, Greiner). Cells are maintained at 37° C. in a humidified atmosphere of 5% CO2. After 48 h of growth, cells are pulsed with 1 μCi [^3H]thymidine and incorporation of [^3H]thymidine is measured with a Topcount radioactive counter (Packard). To investigate the effect of a test compound on MLR-mediated T cell proliferation six three-fold dilution steps in duplicates per test compound are performed (final DMSO concentration 0.1%). Low control values are the proliferation of responder cells alone; high controls are from mixed lymphocyte cells without any test samples. Low controls are subtracted from all values. The inhibition obtained in the presence of a test compound is calculated as percent Inhibition of the high control. The concentration of test compounds resulting in 50% inhibition (IC50) is determined from the dose-response curves. The examples 91, 128, 133 and 137 inhibit MLR-mediated T-cell proliferation in this assay with an IC50<1 μM.
On the technique in general: Uptake of a labelled nucleoside into DNA is a usual measure of proliferation.

Experiment [5] addresses T3, PKCθ (Homo sapiens, UniProt Q04759).
T3 construct: made in house; host or cells: Sf21 insect cells
As to the kind of experiment: Protein Kinase C θ assay (SPA). To be noted: human recombinant PKCθ from Sf21 insect cells, read-out: IC50, inhibition of PKC θ. Format: biochemical. On the procedure:
as §1, §2
Human recombinant nickel bead purified PKCθ from Sf21 insect cells is used under the assay conditions as described above (Section A.1). The enzyme is diluted in PKC dilution buffer containing 1 mM Hepes pH 7.4, 0.5 mM DTT and 0.001% Triton X-100. The kinase reaction is performed with the biotinylated PKCθ pseudosubstrate solved in H2O. The examples 8, 22, 46, 115, 118 and 161 inhibit PKC 9 in this assay with an IC50<1 μM.

Experiment [6] has as its target T4, PKCδ (Homo sapiens, UniProt Q05655).
T4 construct: purchased Panvera
The experiment can be described thus: Protein Kinase C δ assay (SPA). The class given is biochemical. Particulars: human recombinant PKCδ, PKCη pseudosubstrate, read-out: IC50, inhibition of PKC δ. On the procedure:
as §1
Dependent on the efficacy of the inhibitors In the various test systems, corresponding IC50 values are calculated from concentration-inhibition curves by nonlinear regression analysis using the program GraphPad Prism (GraphPad Software Inc., San Diego, Calif.). […]

T1 sequence (P24723 whole entry): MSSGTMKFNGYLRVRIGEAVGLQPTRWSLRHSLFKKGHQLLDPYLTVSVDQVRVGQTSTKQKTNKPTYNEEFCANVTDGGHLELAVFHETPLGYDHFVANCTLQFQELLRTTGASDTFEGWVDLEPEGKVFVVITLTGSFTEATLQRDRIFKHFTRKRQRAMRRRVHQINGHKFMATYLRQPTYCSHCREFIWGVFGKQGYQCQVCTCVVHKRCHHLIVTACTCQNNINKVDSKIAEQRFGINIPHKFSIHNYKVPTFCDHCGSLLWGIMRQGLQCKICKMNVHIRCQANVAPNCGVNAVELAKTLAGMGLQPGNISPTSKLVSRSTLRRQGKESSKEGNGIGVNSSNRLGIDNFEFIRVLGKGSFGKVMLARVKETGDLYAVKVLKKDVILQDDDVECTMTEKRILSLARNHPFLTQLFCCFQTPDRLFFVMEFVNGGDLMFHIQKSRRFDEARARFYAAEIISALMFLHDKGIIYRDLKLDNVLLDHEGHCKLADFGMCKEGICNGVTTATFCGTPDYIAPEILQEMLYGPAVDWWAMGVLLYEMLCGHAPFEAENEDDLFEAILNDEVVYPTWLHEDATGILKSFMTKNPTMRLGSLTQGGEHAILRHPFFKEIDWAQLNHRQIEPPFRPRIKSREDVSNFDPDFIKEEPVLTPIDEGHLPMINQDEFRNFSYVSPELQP
T4 sequence (Q05655 whole entry): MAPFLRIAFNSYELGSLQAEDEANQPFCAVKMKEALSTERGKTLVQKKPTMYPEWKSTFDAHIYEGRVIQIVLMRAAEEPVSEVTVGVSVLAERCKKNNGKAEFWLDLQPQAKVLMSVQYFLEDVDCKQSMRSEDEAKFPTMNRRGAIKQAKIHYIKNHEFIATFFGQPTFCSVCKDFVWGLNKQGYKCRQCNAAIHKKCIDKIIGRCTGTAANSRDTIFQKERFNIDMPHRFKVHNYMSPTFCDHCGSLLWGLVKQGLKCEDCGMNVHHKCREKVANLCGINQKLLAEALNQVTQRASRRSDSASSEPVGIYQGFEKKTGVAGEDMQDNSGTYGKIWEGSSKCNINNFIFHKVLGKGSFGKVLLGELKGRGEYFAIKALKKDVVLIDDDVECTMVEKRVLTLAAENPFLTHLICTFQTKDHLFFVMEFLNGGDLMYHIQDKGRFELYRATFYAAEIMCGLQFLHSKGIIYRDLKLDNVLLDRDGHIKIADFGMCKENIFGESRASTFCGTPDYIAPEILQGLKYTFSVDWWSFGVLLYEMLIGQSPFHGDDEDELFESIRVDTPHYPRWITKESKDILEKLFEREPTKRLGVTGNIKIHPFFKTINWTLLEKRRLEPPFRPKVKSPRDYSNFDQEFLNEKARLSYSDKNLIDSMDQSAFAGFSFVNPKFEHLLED
T3 sequence (Q04759 whole entry): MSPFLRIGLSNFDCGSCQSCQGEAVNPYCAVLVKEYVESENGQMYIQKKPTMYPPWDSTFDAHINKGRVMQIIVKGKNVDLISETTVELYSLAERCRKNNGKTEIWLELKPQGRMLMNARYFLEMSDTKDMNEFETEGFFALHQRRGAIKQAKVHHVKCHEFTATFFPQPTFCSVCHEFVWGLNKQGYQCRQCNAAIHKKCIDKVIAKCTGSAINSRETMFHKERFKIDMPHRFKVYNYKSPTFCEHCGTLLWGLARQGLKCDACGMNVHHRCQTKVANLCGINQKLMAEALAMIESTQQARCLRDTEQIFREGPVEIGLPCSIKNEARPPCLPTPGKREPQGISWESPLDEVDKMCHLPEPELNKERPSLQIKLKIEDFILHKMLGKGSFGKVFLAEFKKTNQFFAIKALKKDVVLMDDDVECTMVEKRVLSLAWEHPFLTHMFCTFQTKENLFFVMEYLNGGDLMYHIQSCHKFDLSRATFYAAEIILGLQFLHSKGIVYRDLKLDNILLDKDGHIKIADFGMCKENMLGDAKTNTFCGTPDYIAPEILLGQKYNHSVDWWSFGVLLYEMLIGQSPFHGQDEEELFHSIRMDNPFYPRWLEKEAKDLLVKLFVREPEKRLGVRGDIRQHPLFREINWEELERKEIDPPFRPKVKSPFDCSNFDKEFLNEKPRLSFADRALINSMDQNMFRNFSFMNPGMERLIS
T2 sequence (P05771 whole entry): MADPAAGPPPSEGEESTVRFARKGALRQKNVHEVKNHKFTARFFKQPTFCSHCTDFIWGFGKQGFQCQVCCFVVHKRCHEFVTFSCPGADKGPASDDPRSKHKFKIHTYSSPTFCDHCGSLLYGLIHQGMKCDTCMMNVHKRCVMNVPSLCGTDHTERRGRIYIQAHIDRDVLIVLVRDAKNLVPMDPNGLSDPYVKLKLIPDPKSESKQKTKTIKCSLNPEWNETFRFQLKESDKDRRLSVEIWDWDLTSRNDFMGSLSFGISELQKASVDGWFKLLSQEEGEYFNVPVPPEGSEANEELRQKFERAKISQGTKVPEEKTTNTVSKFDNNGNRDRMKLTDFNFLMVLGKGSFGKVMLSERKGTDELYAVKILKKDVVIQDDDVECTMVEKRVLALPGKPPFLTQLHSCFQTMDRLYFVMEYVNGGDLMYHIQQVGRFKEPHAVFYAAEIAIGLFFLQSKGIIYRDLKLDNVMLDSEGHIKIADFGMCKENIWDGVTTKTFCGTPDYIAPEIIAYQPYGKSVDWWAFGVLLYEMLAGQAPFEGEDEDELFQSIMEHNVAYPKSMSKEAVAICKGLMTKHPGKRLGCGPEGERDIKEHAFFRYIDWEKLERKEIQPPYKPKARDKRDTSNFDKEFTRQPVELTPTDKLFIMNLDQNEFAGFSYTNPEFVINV

As to `O=S(=O)(Nc1ccc(Nc2cc(-c3cccc4ccccc34)ncn2)cc1)c1ccccc1F` [Example 13, 2-Fluoro-N-[4-(6-naphthalen-1-yl-pyrimidin-4-ylamino)-phenyl]-benzenesulfonamide], the IC50 in experiment [1] was in the range of 1 to 9 µM. Still for that read-out and setting: as for `COc1cccc(-c2cc(Nc3ccc(NS(=O)(=O)c4ccc(C#N)cc4)cc3)ncn2)c1` [Example 19, 4-Cyano-N-{4-[6-(3-methoxy-phenyl)-pyrimidin-4-ylamino]phenyl}benzenesulfonamide], the figure is 1 to 9 µM; as for `COc1cccc(-c2cc(Nc3ccc(NS(=O)(=O)c4ccccc4F)cc3)ncn2)c1` [Example 20, 2-Fluoro-N-{4-[6-(3-methoxy-phenyl)-pyrimidin-4-ylamino]-phenyl}-benzenesulfonamide], 1 to 9 µM. Take `COc1ccc(S(=O)(=O)Nc2ccc(Nc3cc(-c4ccc(OCCN5CCN(C)CC5)cc4)ncn3)cc2)cc1` [Example 52, 4-Methoxy-N-[4-(6-{4-[2-(4-methyl-piperazin-1-yl)-ethoxy]-phenyl}-pyrimidin-4-ylamino)-phenyl]-benzenesulfonamide]: the IC50 in experiment [2] was in the range of 6 to 50 µM; in experiment [3], 2 to 40 µM.

Turning to `CN1CCC(COc2ccc(-c3cc(Nc4ccc(NS(=O)(=O)c5ccc(F)cc5F)cc4)ncn3)cc2)CC1` [Example 91, 2,4-Difluoro-N-(4-{6-[4-(1-methyl-piperidin-4-ylmethoxy)-phenyl]-pyrimidin-4-ylamino}-phenyl)-benzenesulfonamide formic acid salt], the IC50 in experiment [4] is less than 1 µM. Regarding `O=S(=O)(Nc1ccc(Nc2cc(-c3ccc4[nH]ccc4c3)ncn2)cc1)c1ccc(F)cc1F` [Example 118, 2,4-Difluoro-N-{4-[6-(1H-indol-5-yl)-pyrimidin-4-ylamino]-phenyl}-benzenesulfonamide], the IC50 was 6 to 50 µM in experiment [2] and less than 1 µM in experiment [5]. `COc1ccc(S(=O)(=O)Nc2ccc(Nc3cc(-c4ccc5c(ccn5CCN(C)C)c4)ncn3)cc2)cc1` [Example 132, N-(4-{6-[1-(2-Dimethylamino-ethyl)-1H-indol-5-yl]-pyrimidin-4-ylamino}-phenyl)-4-methoxy-benzenesulfonamide]: in experiment [6], the IC50 lay within 2 to 18 µM. With `CN(C)CCCn1ccc2cc(-c3cc(Nc4ccc(NS(=O)(=O)c5ccc(F)cc5F)cc4)ncn3)ccc21` [Example 133, N-(4-{6-[1-(3-Dimethylamino-propyl)-1H-indol-5-yl]-pyrimidin-4-ylamino}-phenyl)-2,4-difluorobenzenesulfonamide], the IC50 in experiment [4] is less than 1 µM. On to `Cc1ccc(S(=O)(=O)Nc2ccc(Nc3cc(-c4ccc5c(ccn5CCN(C)C)c4)ncn3)cc2)cc1` [Example 136, N-(4-{6-[1-(2-Dimethylamino-ethyl)-1H-indol-5-yl]pyrimidin-4-ylamino}-phenyl)-4-methyl-benzenesulfonamide], for which the IC50 in experiment [1] was 1 to 9 µM. For `CN(C)CCCn1ccc2cc(-c3cc(Nc4ccc(NS(=O)(=O)c5ccc(F)c(Cl)c5)cc4)ncn3)ccc21` [Example 137, 3-Chloro-N-(4-{6-[1-(3-dimethylamino-propyl)-1H-indol-5-yl]-pyrimidin-4-ylamino}-phenyl)-4-fluoro-benzenesulfonamide], the IC50 in experiment [4] is less than 1 µM. Regarding `CN(C)CCn1ccc2cc(-c3cc(Nc4ccc(NS(=O)(=O)c5ccc(F)c(Cl)c5)cc4)ncn3)ccc21` [Example 138, 3-Chloro-N-{4-[6-[1-(2-dimethylamino-ethyl)-1H-indol-5-yl]pyrimidin-4-ylamino]-phenyl}-4-fluoro-benzenesulfonamide], the IC50 in experiment [6] is 2 to 18 µM.
